Data from patent publication US20120220604A1, “PIPERAZINYL-ALKYL-BENZOIMIDAZOL-2-ONE DERIVATIVES AND THEIR USE AS MONOAMINE NEUROTRANSMITTER RE-UPTAKE INHIBITORS” (NeuroSearch A/S, priority 2009, published 2012).
pIC50: −log10 of the molar value. Structures can show the parent of a compound that is named as a salt.

Assays:
[1] = target: T1, reuptake of serotonine (5-HT) in synaptosomes (Rattus norvegicus, UniProt P31652); assay: Inhibition of 5-HT reuptake in synaptosomes; type: biochemical; conditions: 3H-5-HT, read-out: 5-HT-uptake IC50
T1 construct: in synaptosomes as described in WO 97/16451 (NeuroSearch A/S); from tissue
T1 sequence (P31652 whole entry): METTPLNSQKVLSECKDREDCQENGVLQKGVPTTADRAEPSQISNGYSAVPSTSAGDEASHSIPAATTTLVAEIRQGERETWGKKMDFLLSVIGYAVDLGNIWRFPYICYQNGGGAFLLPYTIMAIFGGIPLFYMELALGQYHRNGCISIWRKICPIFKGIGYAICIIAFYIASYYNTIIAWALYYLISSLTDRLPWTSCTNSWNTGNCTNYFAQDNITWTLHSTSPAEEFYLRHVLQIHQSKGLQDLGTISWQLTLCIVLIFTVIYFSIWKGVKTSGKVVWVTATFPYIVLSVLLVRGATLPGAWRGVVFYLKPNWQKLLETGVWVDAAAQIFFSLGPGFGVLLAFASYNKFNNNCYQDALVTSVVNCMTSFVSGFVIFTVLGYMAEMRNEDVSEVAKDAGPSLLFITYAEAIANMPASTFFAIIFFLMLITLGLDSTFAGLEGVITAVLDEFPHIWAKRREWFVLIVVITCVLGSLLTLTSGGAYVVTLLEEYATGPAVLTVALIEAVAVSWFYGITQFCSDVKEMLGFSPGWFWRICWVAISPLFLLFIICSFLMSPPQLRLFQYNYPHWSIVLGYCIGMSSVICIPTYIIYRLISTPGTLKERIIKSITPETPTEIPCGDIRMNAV
Text: (§1) Compounds of the invention may be tested for their ability to inhibit reuptake of the monoamines dopamine, noradrenaline and serotonin in synaptosomes e.g. such as described in WO 97/30997 (NeuroSearch A/S) or WO 97/16451 (NeuroSearch A/S). Based on the balanced activity observed in these tests the compound of the invention is considered useful for the treatment, prevention or alleviation of a disease or a disorder or a condition of a mammal, including a human, which disease, disorder or condition is responsive to inhibition of monoamine neurotransmitter re-uptake in the central nervous system.
(§2) Compounds were tested for their ability to inhibit the reuptake of the monoamine neurotransmitters dopamine (DA) noradrenaline (NA) and serotonine (5-HT) in synaptosomes as described in WO 97/16451 (NeuroSearch A/S).
(§3) The test values are given as IC50 (the concentration (μM) of the test substance which inhibits the specific binding of ^3H-DA, ^3H-NA, or ^3H-5-HT by 50%).

[2] = target: T2, reuptake of noradrenaline (NA) in synaptosomes (Rattus norvegicus, UniProt Q63380); assay: Inhibition of noradrenaline reuptake in synaptosomes; type: biochemical; conditions: 3H-NA, read-out: NA-uptake IC50
T2 construct: in synaptosomes as described in WO 97/16451 (NeuroSearch A/S); from tissue
T2 sequence (Q63380 1-617): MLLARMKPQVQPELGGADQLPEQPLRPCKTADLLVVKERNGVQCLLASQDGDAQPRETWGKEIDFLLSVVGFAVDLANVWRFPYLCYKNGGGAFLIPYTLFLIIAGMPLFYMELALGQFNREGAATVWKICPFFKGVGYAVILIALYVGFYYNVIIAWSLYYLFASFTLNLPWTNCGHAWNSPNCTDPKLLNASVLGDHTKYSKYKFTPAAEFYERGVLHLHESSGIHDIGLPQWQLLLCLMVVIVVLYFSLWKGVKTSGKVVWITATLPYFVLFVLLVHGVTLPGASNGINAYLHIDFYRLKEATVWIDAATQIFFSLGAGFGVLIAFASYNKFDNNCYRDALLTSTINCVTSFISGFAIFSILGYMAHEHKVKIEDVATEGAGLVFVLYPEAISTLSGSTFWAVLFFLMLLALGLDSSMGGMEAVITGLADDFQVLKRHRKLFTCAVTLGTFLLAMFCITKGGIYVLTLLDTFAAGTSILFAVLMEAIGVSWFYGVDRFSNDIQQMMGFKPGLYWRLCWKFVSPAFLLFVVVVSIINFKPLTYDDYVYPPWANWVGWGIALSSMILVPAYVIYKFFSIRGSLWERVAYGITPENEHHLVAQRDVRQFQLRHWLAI
Text: as §1, §2, §3

[3] = target: T3, reuptake of dopamine (DA) in synaptosomes (Rattus norvegicus, UniProt P23977); assay: Inhibition of dopamine reuptake in synaptosomes; type: biochemical; conditions: 3H-DA, read-out: DA-uptake IC50
T3 construct: in synaptosomes as described in WO 97/16451 (NeuroSearch A/S); from tissue
T3 sequence (P23977 whole entry): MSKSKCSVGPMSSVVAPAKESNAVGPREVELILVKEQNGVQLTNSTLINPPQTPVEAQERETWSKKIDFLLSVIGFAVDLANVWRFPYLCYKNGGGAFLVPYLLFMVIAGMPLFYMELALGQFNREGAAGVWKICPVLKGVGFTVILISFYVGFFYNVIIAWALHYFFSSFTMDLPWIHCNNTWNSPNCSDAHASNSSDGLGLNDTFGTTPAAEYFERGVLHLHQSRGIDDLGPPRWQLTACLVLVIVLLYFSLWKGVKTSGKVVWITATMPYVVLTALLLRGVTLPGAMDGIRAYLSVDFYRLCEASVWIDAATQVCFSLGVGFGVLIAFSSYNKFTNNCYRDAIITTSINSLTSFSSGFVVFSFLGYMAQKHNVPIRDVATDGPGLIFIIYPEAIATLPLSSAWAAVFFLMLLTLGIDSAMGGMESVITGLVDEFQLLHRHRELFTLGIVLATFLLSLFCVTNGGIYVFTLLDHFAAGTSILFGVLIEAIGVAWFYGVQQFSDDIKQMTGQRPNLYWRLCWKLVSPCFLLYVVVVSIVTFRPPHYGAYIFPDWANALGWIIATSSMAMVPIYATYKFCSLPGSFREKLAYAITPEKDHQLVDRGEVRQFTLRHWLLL
Text: as §1, §2, §3

Compound | melting point [°C] | pIC50 [1] | pIC50 [2] | pIC50 [3]
O=c1n(CCN2CCN(c3ccc4[nH]ccc4c3)CC2)c2ccccc2n1C1=CCCCC1 (as salt: fumaric acid salt) [Compound A7, 1-Cyclohex-1-enyl-3-{2-[4-(1H-indol-5-yl)-piperazin-1-yl]-ethyl}-1,3-dihydro-benzoimidazol-2-one] | 92 to 94 |  |  | 
C=C(C)n1c(=O)n(CCN2CCN(c3ccc4[nH]ccc4c3)CC2)c2ccccc21 (as salt: fumaric acid salt) [Compound A8, 1-{2-[4-(1H-Indol-5-yl)-piperazin-1-yl]-ethyl}-3-isopropenyl-1,3-dihydro-benzoimidazol-2-one] | 112 to 114 |  |  | 
C=C(C)n1c(=O)n(CCN2CCN(c3ccc4c(ccn4C)c3)CC2)c2ccccc21 [Compound A1, 1-Isopropenyl-3-{2-[4-(1-methyl-1H-indol-5-yl)-piperazin-1-yl]-ethyl}-1,3-dihydro-benzoimidazol-2-one] |  | 7.85 | 6.21 | < 6.00
O=c1n(CCN2CCN(c3ccc4[nH]ccc4c3)CC2)c2ccccc2n1C1=CCCCC1 [Compound A7, 1-Cyclohex-1-enyl-3-{2-[4-(1H-indol-5-yl)-piperazin-1-yl]-ethyl}-1,3-dihydro-benzoimidazol-2-one] |  | 6.72 | 5.92 | 5.64
C=C(C)n1c(=O)n(CCN2CCN(c3ccc4[nH]ccc4c3)CC2)c2ccccc21 [Compound A8, 1-{2-[4-(1H-Indol-5-yl)-piperazin-1-yl]-ethyl}-3-isopropenyl-1,3-dihydro-benzoimidazol-2-one] |  | 6.47 | 6.54 | < 6.00

Continued, values first:

melting point [°C] | pIC50 [1] | pIC50 [2] | pIC50 [3] | Compound
 | 8.09 | 5.52 | 5.96 | Cn1ccc2cc(N3CCN(CCn4c(=O)n(C5=CCCCC5)c5ccccc54)CC3)ccc21 [Compound A2, 1-Cyclohex-1-enyl-3-{2-[4-(1-methyl-1H-indol-5-yl)-piperazin-1-yl]-ethyl}-1,3-dihydro-benzoimidazol-2-one]
 | 8.48 | 5.96 | 5.77 | Cn1ccc2ccc(N3CCN(CCn4c(=O)n(C5=CCCCC5)c5ccccc54)CC3)cc21 [Compound A3, 1-Cyclohex-1-enyl-3-{2-[4-(1-methyl-1H-indol-6-yl)-piperazin-1-yl]-ethyl}-1,3-dihydro-benzoimidazol-2-one]
 | 8.32 | 7.21 | 5.89 | C=C(C)n1c(=O)n(CCN2CCN(c3ccc4ccn(C)c4c3)CC2)c2ccccc21 [Compound A4, 1-Isopropenyl-3-{2-[4-(1-methyl-1H-indol-6-yl)-piperazin-1-yl]-ethyl}-1,3-dihydro-benzoimidazol-2-one]
195 to 197 | 8.41 | 6.96 | 5.89 | C=C(C)n1c(=O)n(CCN2CCN(c3ccc4cc[nH]c4c3)CC2)c2ccccc21 [Compound A5]
171 to 173 | 8.36 | 6.80 | 7.57 | O=c1n(CCN2CCN(c3ccc4cc[nH]c4c3)CC2)c2ccccc2n1C1=CCCCC1 [Compound A6, 1-Cyclohex-1-enyl-3-{2-[4-(1H-indol-6-yl)-piperazin-1-yl]-ethyl}-1,3-dihydro-benzoimidazol-2-one]
